Measurements from PubChem BioAssay AID1963977 (Molecular Pharmacology Branch, DTP, NCI, 2024).

Test system: 624824-186-R-J3-PDC multicell spheroids, viability
Assay: Anticancer human tumor 624824-186-R-J3-PDC patient-derived colon adenocarcinoma cell line growth inhibition [PI3K]
Conditions: for IC50: curve of first compound; for viability, T/C: stronger effect = lower value
Procedure, shortened: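 Multi-cell spheroids combine tumor cells with HUVEC and human MSCs, treated with targeted agents alone or with inavolisib, alpelisib, duvelisib or copanlisib. Concentrations fall in half-log steps from at or near clinical Cmax, or from 10 microM where Cmax is unknown; viability read-out.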

[1] = second compound 0.0316 µM, first compound 0.0316 µM
[2] = second compound 0.0316 µM, first compound 0.1 µM
[3] = second compound 0.0316 µM, first compound 0.316 µM
[4] = second compound 0.0316 µM, first compound 1 µM
[5] = second compound 0.0316 µM, first compound 3.16 µM
[6] = second compound 0.0316 µM, first compound 10 µM
[7] = second compound 0.1 µM, first compound 0.0316 µM
[8] = second compound 0.1 µM, first compound 0.1 µM
[9] = second compound 0.1 µM, first compound 0.316 µM
[10] = second compound 0.1 µM, first compound 1 µM
[11] = second compound 0.1 µM, first compound 3.16 µM
[12] = second compound 0.1 µM, first compound 10 µM
[13] = second compound 0.316 µM, first compound 0.0316 µM
[14] = second compound 0.316 µM, first compound 0.1 µM
[15] = second compound 0.316 µM, first compound 0.316 µM
[16] = second compound 0.316 µM, first compound 1 µM
[17] = second compound 0.316 µM, first compound 3.16 µM
[18] = second compound 0.316 µM, first compound 10 µM
[19] = second compound 1 µM, first compound 0.0316 µM
[20] = second compound 1 µM, first compound 0.1 µM
[21] = second compound 1 µM, first compound 0.316 µM
[22] = second compound 1 µM, first compound 1 µM
[23] = second compound 1 µM, first compound 3.16 µM
[24] = second compound 1 µM, first compound 10 µM
[25] = second compound 3.16 µM, first compound 0.0316 µM
[26] = second compound 3.16 µM, first compound 0.1 µM
[27] = second compound 3.16 µM, first compound 0.316 µM
[28] = second compound 3.16 µM, first compound 1 µM
[29] = second compound 3.16 µM, first compound 3.16 µM
[30] = second compound 3.16 µM, first compound 10 µM
[31] = second compound 10 µM, first compound 0.0316 µM
[32] = second compound 10 µM, first compound 0.1 µM
[33] = second compound 10 µM, first compound 0.316 µM
[34] = second compound 10 µM, first compound 1 µM
[35] = second compound 10 µM, first compound 3.16 µM
[36] = second compound 10 µM, first compound 10 µM
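Note: spheroids exposed to agents for seven days before luminescence read.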
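Throughout, for viability, T/C: luminescent signal used as a stand-in for spheroid viability; percent viability relative to DMSO vehicle control wells taken as 100%.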

**Q.** With `CC(C)NCC(C(=O)N1CCN(c2ncnc3c2C(C)CC3O)CC1)c1ccc(Cl)cc1` (centres undefined) + Cc1nc(NC(=O)N2CCCC2C(N)=O)sc1-c1ccnc(C(C)(C)C(F)(F)F)c1 as the compound, how does the IC50 (second compound 0.0316 µM) read?
**A.** 5340 nM

**Q.** And the IC50 (second compound 0.1 µM)?
**A.** 5110 nM

**Q.** And the IC50 (second compound 0.316 µM)?
**A.** 4590 nM

**Q.** And the IC50 (second compound 1 µM)?
**A.** 2850 nM

**Q.** And the IC50 (second compound 3.16 µM)?
**A.** 2030 nM

**Q.** What about the IC50 (second compound 10 µM) of the same compound?
**A.** 1420 nM

**Q.** And the viability, T/C [1]?
**A.** 108%

**Q.** And the viability, T/C [2]?
**A.** 108%

**Q.** And the viability, T/C [3]?
**A.** 99%

**Q.** What about the viability, T/C [4] of the same compound?
**A.** 78.2%

**Q.** What about the viability, T/C [5] of the same compound?
**A.** 59.8%

**Q.** What about the viability, T/C [6] of the same compound?
**A.** 39.7%

**Q.** And the viability, T/C [7]?
**A.** 107%

**Q.** What about the viability, T/C [8] of the same compound?
**A.** 92.8%

**Q.** And the viability, T/C [9]?
**A.** 93.2%

**Q.** What about the viability, T/C [10] of the same compound?
**A.** 77.1%

**Q.** What about the viability, T/C [11] of the same compound?
**A.** 53.2%

**Q.** And the viability, T/C [12]?
**A.** 43.2%

**Q.** What about the viability, T/C [13] of the same compound?
**A.** 104%

**Q.** And the viability, T/C [14]?
**A.** 104%

**Q.** What about the viability, T/C [15] of the same compound?
**A.** 91.1%

**Q.** What about the viability, T/C [16] of the same compound?
**A.** 75.8%

**Q.** What about the viability, T/C [17] of the same compound?
**A.** 53.3%

**Q.** What about the viability, T/C [18] of the same compound?
**A.** 41.9%

**Q.** And the viability, T/C [19]?
**A.** 95.5%

**Q.** And the viability, T/C [20]?
**A.** 105%

**Q.** What about the viability, T/C [21] of the same compound?
**A.** 86.8%

**Q.** What about the viability, T/C [22] of the same compound?
**A.** 72.6%

**Q.** What about the viability, T/C [23] of the same compound?
**A.** 46.5%

**Q.** What about the viability, T/C [24] of the same compound?
**A.** 39.5%

**Q.** What about the viability, T/C [25] of the same compound?
**A.** 86.8%

**Q.** And the viability, T/C [26]?
**A.** 77.4%

**Q.** And the viability, T/C [27]?
**A.** 79.8%

**Q.** And the viability, T/C [28]?
**A.** 59%

**Q.** And the viability, T/C [29]?
**A.** 44.2%

**Q.** And the viability, T/C [30]?
**A.** 32.1%

**Q.** And the viability, T/C [31]?
**A.** 68.1%

**Q.** What about the viability, T/C [32] of the same compound?
**A.** 64.9%

**Q.** What about the viability, T/C [33] of the same compound?
**A.** 70.8%

**Q.** And the viability, T/C [34]?
**A.** 52.5%

**Q.** And the viability, T/C [35]?
**A.** 41.2%

**Q.** And the viability, T/C [36]?
**A.** 32.8%

**Q.** Which results are given for `Cn1ncc(Cl)c1-c1cc(C(=O)NC(CN)Cc2cccc(F)c2)sc1Cl` (centres undefined) + Cc1nc(NC(=O)N2CCCC2C(N)=O)sc1-c1ccnc(C(C)(C)C(F)(F)F)c1?
**A.** IC50 (second compound 0.0316 µM): 3910 nM; IC50 (second compound 0.1 µM): 2840 nM; IC50 (second compound 0.316 µM): 2440 nM; IC50 (second compound 1 µM): 2850 nM; IC50 (second compound 3.16 µM): 1770 nM; IC50 (second compound 10 µM): 933 nM; viability, T/C [1]: 107%; viability, T/C [2]: 95.5%; viability, T/C [3]: 90.2%; viability, T/C [4]: 71.7%; viability, T/C [5]: 52.4%; viability, T/C [6]: 36.4%; viability, T/C [7]: 104%; viability, T/C [8]: 103%; viability, T/C [9]: 98.8%; viability, T/C [10]: 70.9%; viability, T/C [11]: 49.8%; viability, T/C [12]: 39%; viability, T/C [13]: 108%; viability, T/C [14]: 104%; viability, T/C [15]: 89.4%; viability, T/C [16]: 61%; viability, T/C [17]: 50%; viability, T/C [18]: 36.1%; viability, T/C [19]: 102%; viability, T/C [20]: 87%; viability, T/C [21]: 82.2%; viability, T/C [22]: 70.1%; viability, T/C [23]: 44.9%; viability, T/C [24]: 30.4%; viability, T/C [25]: 76.7%; viability, T/C [26]: 89%; viability, T/C [27]: 81.9%; viability, T/C [28]: 56.7%; viability, T/C [29]: 42.8%; viability, T/C [30]: 26.7%; viability, T/C [31]: 74.5%; viability, T/C [32]: 68%; viability, T/C [33]: 54.8%; viability, T/C [34]: 53.8%; viability, T/C [35]: 37.6%; viability, T/C [36]: 21.6%
